Reference: patent US20170003277A1 (priority 2015, published 2017)

System: THP-1 human monocyte cell line
Experiment: Pathway enrichment (DAVID) in THP-1 study: Copaxone vs mannitol and Probioglat vs GA
Type: cell-based
Details: Copaxone vs mannitol, 6 hours

In the case of glatiramer acetate [Copaxone®], the “Fold Enrichment: GO: 0003006~reproductive developmental process” value (top downregulated genes) was 6.25, the “Fold Enrichment: GO: 0007275~multicellular organismal development” value (top downregulated genes) was 2.168 and the “Fold Enrichment: GO: 0009653~anatomical structure morphogenesis” value (top downregulated genes) was 2.643. For the same substance, the “Fold Enrichment: GO: 0030154~cell differentiation” value (top downregulated genes) was 2.556, the “Fold Enrichment: GO: 0032502~developmental process” value (top downregulated genes) was 1.984 and the “Fold Enrichment: GO: 0048513~organ development” value (top downregulated genes) was 2.76. The “Fold Enrichment: GO: 0048731~system development” value (top downregulated genes) was 2.396, the “Fold Enrichment: GO: 0048856~anatomical structure development” value (top downregulated genes) was 2.165 and the “Fold Enrichment: GO: 0048869~cellular developmental process” value (top downregulated genes) was 2.411. For the same substance, the “Fold Enrichment: G0: 0001568~blood vessel development” value (top upregulated genes) was 3.472, the “Fold Enrichment: G0: 0002819~regulation of adaptive immune response” value (top upregulated genes) was 7.067 and the “Fold Enrichment: G0: 0030154~cell differentiation” value (top upregulated genes) was 1.794. The “Fold Enrichment: GO: 0000267~cell fraction” value (top upregulated genes) was 1.993, the “Fold Enrichment: GO: 0001501~skeletal system development” value (top upregulated genes) was 3.144 and the “Fold Enrichment: GO: 0001525~angiogenesis” value (top upregulated genes) was 4.224. The “Fold Enrichment: GO: 0001608~nucleotide receptor activity, G-protein coupled” value (top upregulated genes) was 13.87, the “Fold Enrichment: GO: 0001614~purinergic nucleotide receptor” value (top upregulated genes) was 12.55 and the “Fold Enrichment: GO: 001816~cytokine production” value (top upregulated genes) was 7.526. The “Fold Enrichment: GO: 0001871~pattern binding” value (top upregulated genes) was 5.244, the “Fold Enrichment: GO: 0001944~vasculature development” value (top upregulated genes) was 3.428 and the “Fold Enrichment: GO: 0002376~immune system process” value (top upregulated genes) was 2.852. The “Fold Enrichment: GO: 0002682~regulation of immune system process” value (top upregulated genes) was 3.763, the “Fold Enrichment: GO: 0002683~negative regulation of immune” value (top upregulated genes) was 5.682 and the “Fold Enrichment: GO: 0002684~positive regulation of immune system process” value (top upregulated genes) was 4.025. The “Fold Enrichment: GO: 0002694~regulation of leukocyte activation” value (top upregulated genes) was 4.14, the “Fold Enrichment: GO: 0002697~regulation of immune effector process” value (top upregulated genes) was 6.009 and the “Fold Enrichment: GO: 0002698~negative regulation of immune effector process” value (top upregulated genes) was 15.05. For the same substance, the “Fold Enrichment: GO: 0002698~positive regulation of response to external stimulus” value (top upregulated genes) was 6.536, the “Fold Enrichment: GO: 0002703~regulation of leukocyte mediated immunity” value (top upregulated genes) was 7.43 and the “Fold Enrichment: GO: 0002822~regulation of adaptive immune response based on somatic recombination of immune receptors built from immunoglobulin superfamily domains” value (top upregulated genes) was 7.244. For the same substance, the “Fold Enrichment: GO: 0004222~metalloendopeptidase activity” value (top upregulated genes) was 6.148, the “Fold Enrichment: GO: 0004871~signal transducer activity” value (top upregulated genes) was 2.537 and the “Fold Enrichment: GO: 0004872~receptor activity” value (top upregulated genes) was 2.976. The “Fold Enrichment: GO: 0004888~transmembrane receptor activity” value (top upregulated genes) was 3.768, the “Fold Enrichment: GO: 0004930~G-protein coupled receptor activity” value (top upregulated genes) was 4.293 and the “Fold Enrichment: GO: 0005576~extracellular region” value (top upregulated genes) was 2.824. The “Fold Enrichment: GO: 0005578~proteinaceous extracellular matrix” value (top upregulated genes) was 5.31, the “Fold Enrichment: GO: 0005615~extracellular space” value (top upregulated genes) was 3.371 and the “Fold Enrichment: GO: 0005624~membrane fraction” value (top upregulated genes) was 2.128. For the same substance, the “Fold Enrichment: GO: 0005626~insoluble friction” value (top upregulated genes) was 2.12, the “Fold Enrichment: GO: 0005886~plasma membrane” value (top upregulated genes) was 2.42 and the “Fold Enrichment: GO: 0005887~integral to plasma membrane” value (top upregulated genes) was 3.25. For the same substance, the “Fold Enrichment: GO: 0006928~cell motion” value (top upregulated genes) was 2.469, the “Fold Enrichment: GO: 0006935~chemotaxis” value (top upregulated genes) was 4.651 and the “Fold Enrichment: GO: 0006950~response to stress” value (top upregulated genes) was 1.897. The “Fold Enrichment: GO: 0006952~defense response” value (top upregulated genes) was 3.418, the “Fold Enrichment: GO: 0006954~inflammatory response” value (top upregulated genes) was 4.475 and the “Fold Enrichment: GO: 0006955~immune response” value (top upregulated genes) was 3.57. The “Fold Enrichment: GO: 0007155~cell adhesion” value (top upregulated genes) was 2.948, the “Fold Enrichment: GO: 0007165~signal transduction” value (top upregulated genes) was 1.567 and the “Fold Enrichment: GO: 0007166~cell surface receptor linked signal transduction” value (top upregulated genes) was 2.246. For the same substance, the “Fold Enrichment: GO: 0007186~G-protein coupled receptor protein signaling pathway” value (top upregulated genes) was 2.726, the “Fold Enrichment: GO: 0007275~multicellular organismal development” value (top upregulated genes) was 1.742 and the “Fold Enrichment: GO: 0007610~behavior” value (top upregulated genes) was 2.76. The “Fold Enrichment: GO: 0007626~locomotory behavior” value (top upregulated genes) was 4.081, the “Fold Enrichment: GO: 0009605~response to external stimulus” value (top upregulated genes) was 3.127 and the “Fold Enrichment: GO: 0009607~response to biotic stimulus” value (top upregulated genes) was 3.376. The “Fold Enrichment: GO: 0009611~response to wounding” value (top upregulated genes) was 4.097, the “Fold Enrichment: GO: 0009617~response to bacterium” value (top upregulated genes) was 4.268 and the “Fold Enrichment: GO: 0009897~external side of plasma membrane” value (top upregulated genes) was 6.497. For the same substance, the “Fold Enrichment: GO: 0009986~cell surface” value (top upregulated genes) was 4.067, the “Fold Enrichment: GO: 0010033~response to organic substance” value (top upregulated genes) was 2.03 and the “Fold Enrichment: GO: 0016020~membrane” value (top upregulated genes) was 1.538. The “Fold Enrichment: GO: 0016021~integral to membrane” value (top upregulated genes) was 1.676, the “Fold Enrichment: GO: 0016477~cell migration” value (top upregulated genes) was 3.203 and the “Fold Enrichment: GO: 0016502~nucleotide receptor activity” value (top upregulated genes) was 12.55. For the same substance, the “Fold Enrichment: GO: 0019955~cytokine binding” value (top upregulated genes) was 6.971, the “Fold Enrichment: GO: 0022610~biological adhesion” value (top upregulated genes) was 2.94 and the “Fold Enrichment: GO: 0030247~polysaccharide binding” value (top upregulated genes) was 5.244. The “Fold Enrichment: GO: 0030574~collagen cataboltc process” value (top upregulated genes) was 20.7, the “Fold Enrichment: GO: 0031012~extracellular matrix” value (top upregulated genes) was 5.017 and the “Fold Enrichment: GO: 0031224~intrinsic to membrane” value (top upregulated genes) was 1.684. For the same substance, the “Fold Enrichment: GO: 0031226~intrinsic to plasma membrane” value (top upregulated genes) was 3.268, the “Fold Enrichment: GO: 0031347~regulation of defense response” value (top upregulated genes) was 5.519 and the “Fold Enrichment: GO: 0031349~positive regulation of defense response” value (top upregulated genes) was 6.758. The “Fold Enrichment: GO: 0031960~response to corticosteroid stimulus” value (top upregulated genes) was 6.623, the “Fold Enrichment: GO: 0032101~regulation of response to external stimulus” value (top upregulated genes) was 6.288 and the “Fold Enrichment: GO: 0032496~response to lipopolysaccharide” value (top upregulated genes) was 5.682. The “Fold Enrichment: GO: 0032502~developmental process” value (top upregulated genes) was 1.643, the “Fold Enrichment: GO: 0032879~regulation of localization” value (top upregulated genes) was 2.359 and the “Fold Enrichment: GO: 0040011~locomotion” value (top upregulated genes) was 3.21. For the same substance, the “Fold Enrichment: GO: 0042221~response to chemical stimulus” value (top upregulated genes) was 1.879, the “Fold Enrichment: GO: 0042330~taxis” value (top upregulated genes) was 4.651 and the “Fold Enrichment: GO: 0044243~multicellular organismal catabolic process” value (top upregulated genes) was 20.7. The “Fold Enrichment: GO: 0044421~extracellular region part” value (top upregulated genes) was 3.61, the “Fold Enrichment: GO: 0044425~membrane part” value (top upregulated genes) was 1.539 and the “Fold Enrichment: GO: 0044459~plasma membrane part” value (top upregulated genes) was 2.404. For the same substance, the “Fold Enrichment: GO: 0045028~purinergic nudeotide receptor activity, G-protein coupled” value (top upregulated genes) was 13.87, the “Fold Enrichment: GO: 0045595~regulation of cell differentiation” value (top upregulated genes) was 2.517 and the “Fold Enrichment: GO: 0046903~secretion” value (top upregulated genes) was 3.164. For the same substance, the “Fold Enrichment: GO: 0048513~organ development” value (top upregulated genes) was 1.846, the “Fold Enrichment: GO: 0048514~blood vessel morphogenesis” value (top upregulated genes) was 3.398 and the “Fold Enrichment: GO: 0048518~positive regulation of biological process” value (top upregulated genes) was 1.559. For the same substance, the “Fold Enrichment: GO: 0048519~negative regulation of biological process” value (top upregulated genes) was 1.629, the “Fold Enrichment: GO: 0048545~response to steroid hormone stimulus” value (top upregulated genes) was 4.216 and the “Fold Enrichment: GO: 0048583~regulation of response to stimulus” value (top upregulated genes) was 3.613. The “Fold Enrichment: GO: 0048584~positive regulation of response to stimulus” value (top upregulated genes) was 3.79, the “Fold Enrichment: GO: 0048731~system development” value (top upregulated genes) was 1.918 and the “Fold Enrichment: GO: 0048856~anatomical structure development” value (top upregulated genes) was 1.792. The “Fold Enrichment: GO: 0048869~cellular developments process” value (top upregulated genes) was 1.736, the “Fold Enrichment: GO: 0048870~cell motility” value (top upregulated genes) was 2.99 and the “Fold Enrichment: GO: 0050727~regulation of inflammatory response” value (top upregulated genes) was 8.87. For the same substance, the “Fold Enrichment: GO: 0050729~positive regulation of inflammatory response” value (top upregulated genes) was 11.5, the “Fold Enrichment: GO: 0050776~regulation of immune response” value (top upregulated genes) was 4.293 and the “Fold Enrichment: GO: 0050793~regulation of developmental process” value (top upregulated genes) was 3.161. The “Fold Enrichment: GO: 0050864~regulation of B cell activation” value (top upregulated genes) was 8.565, the “Fold Enrichment: GO: 0050865~regulation of cell activation” value (top upregulated genes) was 4.296 and the “Fold Enrichment: GO: 0050867~positive regulation of cell activation” value (top upregulated genes) was 4.664. The “Fold Enrichment: GO: 0050896~response to stimulus” value (top upregulated genes) was 1.852, the “Fold Enrichment: GO: 0051239~regulation of multicellular organismal process” value (top upregulated genes) was 2.792 and the “Fold Enrichment: GO: 0051241~negative regulation of multicellular organismal” value (top upregulated genes) was 4.902. For the same substance, the “Fold Enrichment: GO: 0051270~regulation of cell motion” value (top upregulated genes) was 3.643, the “Fold Enrichment: GO: 0051384~response to glucocorticoid stimulus” value (top upregulated genes) was 7.046 and the “Fold Enrichment: GO: 0051674~localization of cell” value (top upregulated genes) was 2.99. The “Fold Enrichment: GO: 0051704~multi-organism process” value (top upregulated genes) was 2.223, the “Fold Enrichment: GO: 0051707~response to other organism” value (top upregulated genes) was 4.426 and the “Fold Enrichment: GO: 0060089~molecular transducer activity” value (top upregulated genes) was 2.537. The “Fold Enrichment: GO: 0065007~biological regulation” value (top upregulated genes) was 1.236, the “Fold Enrichment: GO: 0065008~regulation of biological quality” value (top upregulated genes) was 2.067 and the “Fold Enrichment: GO: 0080134~regulation of response to stress” value (top upregulated genes) was 3.7. For the same substance, the “Fold Enrichment: GO: 00322501~multicellular organismal process” value (top upregulated genes) was 1.77, the “Fold Enrichment: GO: 00550878~regulation of body fluid levels” value (top upregulated genes) was 4.87 and the “Fold Enrichment: hsa04060:Cytokine-cytokine receptor interaction” value (top upregulated genes) was 3.911.
